The subject of the assay is HTT. The assay can be described thus: Splicing assay (RT-qPCR on cell lysates) monitoring HTT splice variants: AJ and CJ mRNA. In kind it is cell-based. The note with it: concentration having 50% response. As to the method: Example 69: Exemplary Splicing Assay for Monitoring Expression Levels of Splice Variants
To set up 10 uL RT-qPCR reactions, cell lysates were transferred to 384-well qPCR plates containing the master mix according to the table below. The plates were sealed, gently vortexed, and spun down before the run. The volumes were adjusted accordingly in some instances where the reaction was carried in 20 uL. The table below summarizes the components of the RT-qPCR reactions:
The RT-qPCR reaction was performed using a QuantStudio (ThermoFisher) under the following fast cycling conditions. All samples and standards were analyzed at least in duplicate. In some instances, bulk room temperature (RT) step of 5-10 minutes was completed for all plates before proceeding with qPCR. The table below summarizes the PCR cycle:
The data analysis was performed by first determining the ΔCt vs the housekeeper gene. This ΔCt was then normalized against the DMSO control (ΔΔCt) and converted to RQ (relative quantification) using the 2^(−ΔΔCt) equation. The RQ were then converted to a percentage response by arbitrarily setting an assay window of 3.5 ΔCt for HTT-CJ and an assay window of 9 ΔCt for HTT-AJ. […] The percentage response was then fitted to the 4 parametric logistic equation to evaluate the concentration dependence of compound treatment. The increase in AJ mRNA is reported as AC50 (compound concentration having 50% response in AJ increase) while the decrease in CJ mRNA levels is reported as IC50 (compound concentration having 50% response in CJ decrease).
In general terms: Quantitative PCR measures a nucleic acid by following its amplification.

[1] abbreviates: Table 8, decrease in CJ mRNA, read-out: HTT CJ AC50.
[2] abbreviates: Table 8, increase in AJ mRNA, read-out: HTT AJ AC50.
The mark [3] stands for this setting: Table 7, decrease in CJ mRNA, read-out: HTT CJ AC50.
Where [4] appears, read: Table 7, increase in AJ mRNA, read-out: HTT AJ AC50.

The structures appear in SMILES notation. Counter-ions that a name gives are not always drawn. Like-named read-outs stand apart in the source and are kept apart here.

With `CN1C[C@@H]2[C@H](C1)[C@H]2N(C)c1ccc(-c2ccc(-c3cn[nH]c3)c3ncsc23)nn1` [Compound 235, (exo)-N,3-dimethyl-N-{6-[4-(1H-pyrazol-4-yl)-1,3-benzothiazol-7-yl]pyridazin-3-yl}-3-azabicyclo[3.1.0]hexan-6-amine hydrochloride], the AC50 runs as follows: under setting [1], above 10000 nM; under setting [2], above 10000 nM.
Turning to `C[C@@H]1C[C@H](N(C)c2ccc(-c3ccc(-n4cccn4)c4nn[nH]c34)nn2)CCN1` [Compound 117, N-methyl-N-[(2R,4R)-2-methylpiperidin-4-yl]-6-[7-(pyrazol-1-yl)-3H-1,2,3-benzotriazol-4-yl]pyridazin-3-amine], the AC50 is, setting by setting: under setting [3], above 5000 nM; under setting [4], above 5000 nM.
Regarding `COc1cc(-c2ccc(-c3ccc(N(C)C4CC(C)(C)NC(C)(C)C4)nn3)c3scnc23)ccn1` [Compound 280], the AC50 under setting [1] is 100 to 1000 nM and the AC50 under setting [2] was in the range of 100 to 1000 nM.
In the case of `CN(c1ccc(-c2ccc(-c3cn[nH]c3)c3ccsc23)nn1)C1CC(C)(C)NC(C)(C)C1` [Compound 131, N-methyl-6-[4-(1H-pyrazol-4-yl)-1-benzothiophen-7-yl]-N-(2,2,6,6-tetramethylpiperidin-4-yl)pyridazin-3-amine], the AC50 was above 5000 nM under setting [3] and above 5000 nM under setting [4].
With `C[C@H]1C[C@H](N(C)c2ccc(-c3ccc(-n4cccn4)c4cc[nH]c34)nn2)CCN1` [Compound 158], the AC50 runs as follows: under setting [3], above 5000 nM; under setting [4], above 5000 nM.
With `c1n[nH]cc1-c1ccc(-c2ccc(N3CCNCC3)nn2)c2[nH]ncc12` [Compound 241], the AC50 under setting [1] is above 10000 nM and the half-maximal activity concentration (AC50) under setting [2] lay within 1000 to 10000 nM.
Regarding `CN(c1ccc(-c2ccc(-n3cccn3)c3cn[nH]c23)nn1)[C@@H]1C[C@H]2CC[C@@H](C1)N2` [Compound 105, (1R,3R,5S)—N-methyl-N-[6-[4-(pyrazol-1-yl)-1H-indazol-7-yl]pyridazin-3-yl]-8-azabicyclo[3.2.1]octan-3-amine], the AC50 was below 500 nM under setting [3] and below 500 nM under setting [4].
Regarding `c1n[nH]cc1-c1ccc(-c2ccc(O[C@@H]3C[C@H]4CC[C@@H](C3)N4)nn2)c2[nH]ncc12` [Compound 142, 7-[6-[(1R,3S,5S)-8-azabicyclo[3.2.1]octan-3-yloxy]pyridazin-3-yl]-4-(1H-pyrazol-4-yl)-1H-indazole], the AC50 is, setting by setting: under setting [3], below 500 nM; under setting [4], 500 to 5000 nM.
For `CN(c1ccc(-c2ccc(-c3cnnc(O)c3)c3scnc23)nn1)C1CC(C)(C)NC(C)(C)C1` [Compound 234], the AC50 is, setting by setting: under setting [1], above 10000 nM; under setting [2], above 10000 nM.
As for `CN(c1ccc(-c2ccc(-c3c[nH]nn3)c3cn[nH]c23)nn1)[C@@H]1C[C@H]2CC[C@@H](C1)N2` [Compound 141], the AC50 is, setting by setting: under setting [3], below 500 nM; under setting [4], below 500 nM.
Regarding `CC1(C)CC(Nc2ccc(-c3ccc(-c4cn[nH]c4)c4cn[nH]c34)nn2)CC(C)(C)N1` [Compound 275], the AC50 under setting [1] is 100 to 1000 nM and the AC50 under setting [2] was 1000 to 10000 nM.
Take `c1nc2c(-c3cn[nH]c3)ccc(-c3ccc(N4CCC45CCCNC5)nn3)c2s1` (centres unmarked) [Compound 276]: the AC50 reads like this: under setting [1], 1000 to 10000 nM; under setting [2], 1000 to 10000 nM.
As to `COc1cc(-c2ccc(-c3ccc(N(C)C4CC(C)(C)NC(C)(C)C4)nn3)c3ncsc23)cnn1` [Compound 233], the AC50 runs as follows: under setting [1], 100 to 1000 nM; under setting [2], 100 to 1000 nM.
Turning to `c1n[nH]cc1-c1ccc(-c2ccc(N3CCC4(CCNCC4)C3)nn2)c2[nH]ncc12` [Compound 239], the AC50 runs as follows: under setting [1], above 10000 nM; under setting [2], above 10000 nM.
Take `CN(c1cnc(-c2cc(F)c(-c3cn[nH]c3)c3cn[nH]c23)nn1)[C@@H]1C[C@H]2CC[C@@H](C1)N2` [Compound 149]: the AC50 is below 500 nM under setting [3] and below 500 nM under setting [4].
In the case of `[2H]C([2H])([2H])N(c1ccc(-c2ccc(-c3cn[nH]c3)c3ncsc23)nn1)C1CC(C)(C)NC(C)(C)C1` [Compound 231, N-(2H3)methyl-6-[4-(1H-pyrazol-4-yl)-1,3-benzothiazol-7-yl]-N-(2,2,6,6-tetramethylpiperidin-4-yl)pyridazin-3-amine], the AC50 under setting [1] was 100 to 1000 nM and the AC50 under setting [2] is 100 to 1000 nM.

Usually AC50 stands for the concentration giving half of the maximal activity seen.

For the origin of these results see patent US20230140983A1, “PYRIDAZINE DERIVATIVES FOR MODULATING NUCLEIC ACID SPLICING” (REMIX THERAPEUTICS INC., priority 2020, published 2023).
